Measured values published in publication PMC2742306 (Molecular cell, 2009).
Residues, ends and D or L forms follow the SMILES beside them.

Columns and labels:
Format in all cases: biochemical, E. coli
D320A DegS [1] = biological target: T1, D320A DegS (Escherichia coli, UniProt P0AEE3, D320A)
K243D mutant of DegS [2] = biological target: T2, K243D mutant of DegS (Escherichia coli, UniProt P0AEE3, K243D)
D320A DegS [3] = biological target: T1, D320A DegS; assay: OMP-peptide activation of RseA cleavage by D320A DegS
M319A DegS [4] = biological target: T3, M319A DegS (Escherichia coli, UniProt P0AEE3, M319A); assay: Global fit to MWC allosteric model, M319A DegS
D320A DegS [5] = biological target: T1, D320A DegS; assay: Global fit to MWC allosteric model, D320A DegS
wild-type DegS [6] = biological target: T4, wild-type DegS (Escherichia coli, UniProt P0AEE3)
K243D mutant of DegS [7] = biological target: T2, K243D mutant of DegS; assay: OMP-peptide activation of RseA cleavage by K243D DegS
[8] = biological target: T5, K243D/M319A double mutant of DegS (Escherichia coli, UniProt P0AEE3, K243D/M319A); assay: OMP-peptide activation of RseA cleavage by K243D/M319A DegS
[9] = biological target: T5, K243D/M319A double mutant of DegS; conditions: saturating peptide
[10] = biological target: T5, K243D/M319A double mutant of DegS; assay: Global fit to MWC allosteric model, K243D/M319A DegS
wild-type DegS [11] = biological target: T4, wild-type DegS; assay: OMP-peptide activation of RseA cleavage by wild-type DegS
M319A DegS [12] = biological target: T3, M319A DegS; assay: OMP-peptide activation of RseA cleavage by M319A DegS
K243D mutant of DegS [13] = biological target: T2, K243D mutant of DegS; assay: Global fit to MWC allosteric model, K243D DegS
wild-type DegS [14] = biological target: T4, wild-type DegS; conditions: wild-type DegS 0.9 μM trimer; 20 μM rhodamine-FP; saturating peptide
wild-type DegS [15] = biological target: T4, wild-type DegS; conditions: wild-type DegS 0.5 μM trimer, YYF 300 μM
[16] = M319A, MWC global fit, RseA, not peptide, binding
[17] = D320A, MWC global fit, RseA, not peptide, binding
[18] = K243D, MWC global fit, RseA, not peptide, binding

T1 sequence (P0AEE3 27-355 D320A): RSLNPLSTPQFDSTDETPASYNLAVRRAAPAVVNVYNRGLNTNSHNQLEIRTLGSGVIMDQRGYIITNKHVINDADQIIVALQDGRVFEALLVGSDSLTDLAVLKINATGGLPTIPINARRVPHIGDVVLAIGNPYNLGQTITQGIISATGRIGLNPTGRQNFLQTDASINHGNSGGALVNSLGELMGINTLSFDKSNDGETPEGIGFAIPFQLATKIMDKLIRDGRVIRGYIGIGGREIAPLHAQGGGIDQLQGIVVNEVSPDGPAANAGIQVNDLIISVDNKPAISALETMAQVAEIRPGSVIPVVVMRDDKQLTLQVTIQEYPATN
T5 sequence (P0AEE3 27-355 K243D/M319A): as the sequence (P0AEE3 27-355 D320A) above, with K217D, M293A, A294D counted along it
T2 sequence (P0AEE3 27-355 K243D): as the sequence (P0AEE3 27-355 D320A) above, with K217D, A294D counted along it
T3 sequence (P0AEE3 27-355 M319A): as the sequence (P0AEE3 27-355 D320A) above, with M293A, A294D counted along it
T4 sequence (P0AEE3 27-355): as the sequence (P0AEE3 27-355 D320A) above, with A294D counted along it

N[C@@H](Cc1ccc(O)cc1)C(=O)N[C@@H](Cc1ccc(O)cc1)C(=O)N[C@@H](Cc1ccccc1)C(=O)O [YYF] (H-Tyr-Tyr-Phe-OH)
Vmax (RseA cleavage) (D320A DegS [1]; D320A 0.3 μM trimer, saturating peptide (DNRDGNVYYF 30 μM), 23 °C, pH 8.3): 3.1 ± 0.3 s^−1enz^−1
Vmax relative to wild-type DegS (D320A DegS [1]; D320A, saturating YYF): roughly within error for wild-type and the mutants
Hill Constant (RseA substrate) (D320A DegS [1]; D320A, saturating peptide): 1.2 ± 0.1
Vmax (RseA cleavage) (K243D mutant of DegS [2]; K243D 0.3 μM trimer, saturating peptide (DNRDGNVYYF 30 μM), 23 °C, pH 8.3): 2.3 ± 0.1 s^−1enz^−1
Vmax relative to wild-type DegS (K243D mutant of DegS [2]; K243D, saturating YYF): roughly within error for wild-type and the mutants
Hill Constant (RseA substrate) (K243D mutant of DegS [2]; K243D, saturating peptide): 1.3 ± 0.1
EC50 (D320A DegS [3]): 4.8 ± 1.2 µM
Hill Constant (peptide activation) (D320A DegS [3]; D320A, 200 μM RseA): 1.4 ± 0.1
activation relative to wild-type DegS (D320A DegS [3]; D320A, single substrate concentration): only marginally better than wild-type DegS
KRS, dissociation constant of RseA substrate for R-state subunit (M319A DegS [4]; [16]): 150 µM
KTS, dissociation constant of RseA substrate for T-state subunit (M319A DegS [4]; [16]): 505 µM
L0, equilibrium constant T/R of unliganded enzyme (M319A DegS [4]; M319A, MWC global fit, enzyme parameter, peptide-independent): 5500
KTP/KRP (M319A DegS [4]; M319A, MWC global fit, peptide preference for relaxed state): 2.7
kr, rate constant for cleavage of RseA by substrate-bound R-state subunits (M319A DegS [4]; M319A, MWC global fit, same value for all enzymes and peptides): 3.3 s⁻¹
reduction of (KTP/KRP)^3 relative to wild-type (M319A DegS [4]; M319A, MWC model): ~100 fold
enzymes in active conformation (M319A DegS [4]; M319A, saturating peptide and substrate, MWC model): about 10%
tighter binding to tense M319A than to tense wild-type DegS (M319A DegS [4]; MWC modeling): about 20 fold
reduction of (KTP/KRP)^3 relative to wild-type (D320A DegS [5]; D320A (range given for K243D and D320A together), MWC model): 30–70 fold
KRS, dissociation constant of RseA substrate for R-state subunit (D320A DegS [5]; [17]): 150 µM
KTS, dissociation constant of RseA substrate for T-state subunit (D320A DegS [5]; [17]): 505 µM
L0, equilibrium constant T/R of unliganded enzyme (D320A DegS [5]; D320A, MWC global fit, enzyme parameter, peptide-independent): 350
KTP/KRP (D320A DegS [5]; D320A, MWC global fit, peptide preference for relaxed state): 4.1
kr, rate constant for cleavage of RseA by substrate-bound R-state subunits (D320A DegS [5]; D320A, MWC global fit, same value for all enzymes and peptides): 3.3 s⁻¹
enzymes in active conformation (D320A DegS [5]; D320A, saturating peptide and RseA, MWC model): about 85%
L0, equilibrium constant T/R of unliganded enzyme (wild-type DegS [6]; MWC global fit, enzyme parameter, peptide-independent): 15000
KTP/KRP (wild-type DegS [6]; MWC global fit, peptide preference for relaxed state): 12.3
kr, rate constant for cleavage of RseA by substrate-bound R-state subunits (wild-type DegS [6]; MWC global fit, same value for all enzymes and peptides): 3.3 s⁻¹
DegS molecules in active conformation (wild-type DegS [6]; saturating peptide and saturating RseA substrate, MWC model): 83%
EC50 (K243D mutant of DegS [7]): 6.4 ± 1.6 µM
Hill Constant (peptide activation) (K243D mutant of DegS [7]; K243D, 200 μM RseA): 1.4 ± 0.2
activation relative to wild-type DegS (K243D mutant of DegS [7]; K243D, single substrate concentration): only marginally better than wild-type DegS
EC50 [8]: 0.7 ± 0.2 µM
Hill Constant (peptide activation) ([8]; K243D/M319A, 200 μM RseA): 1.2 ± 0.1
Maximum Activity (RseA cleavage) ([8]; K243D/M319A, 200 μM RseA, 23 °C, pH 8.3, average of two or more determinations): 2700 ± 400 M⁻¹ s⁻¹
Hill Constant (RseA substrate) [9]: 1.2 ± 0.1
Vmax (RseA cleavage) ([9]; 23 °C, pH 8.3): 2.1 ± 0.2 s^−1enz^−1
KRS, dissociation constant of RseA substrate for R-state subunit ([10]; RseA, not peptide, binding): 150 µM
KTS, dissociation constant of RseA substrate for T-state subunit ([10]; RseA, not peptide, binding): 505 µM
L0, equilibrium constant T/R of unliganded enzyme ([10]; enzyme parameter, peptide-independent): 90
KTP/KRP ([10]; peptide preference for relaxed state): 2.1
kr, rate constant for cleavage of RseA by substrate-bound R-state subunits ([10]; same value for all enzymes and peptides): 3.3 s⁻¹
EC50 (wild-type DegS [11]): 29 ± 3 µM
displacement in concentration between YYF and YQF activation curves (wild-type DegS [11]; wild-type DegS): ~10 fold
Hill Constant (peptide activation) (wild-type DegS [11]; wild-type DegS, 200 μM RseA): 1.7 ± 0.1
EC50 (M319A DegS [12]): 3.2 ± 0.4 µM
Hill Constant (peptide activation) (M319A DegS [12]; M319A, 200 μM RseA): 1.1 ± 0.1
Maximum Activity (RseA cleavage) (M319A DegS [12]; M319A, 200 μM RseA, 23 °C, pH 8.3, average of two or more determinations): 120 ± 20 M⁻¹ s⁻¹
decrease of half-maximal activation concentration relative to wild-type DegS (M319A DegS [12]; M319A, lower than wild-type): 10 fold
decrease of peptide-activated activity relative to wild-type DegS (M319A DegS [12]; M319A, saturating YYF, lower than wild-type value): 20 fold
reduction of (KTP/KRP)^3 relative to wild-type (K243D mutant of DegS [13]; K243D (range given for K243D and D320A together), MWC model): 30–70 fold
KRS, dissociation constant of RseA substrate for R-state subunit (K243D mutant of DegS [13]; [18]): 150 µM
KTS, dissociation constant of RseA substrate for T-state subunit (K243D mutant of DegS [13]; [18]): 505 µM
L0, equilibrium constant T/R of unliganded enzyme (K243D mutant of DegS [13]; K243D, MWC global fit, enzyme parameter, peptide-independent): 180
KTP/KRP (K243D mutant of DegS [13]; K243D, MWC global fit, peptide preference for relaxed state): 3.0
kr, rate constant for cleavage of RseA by substrate-bound R-state subunits (K243D mutant of DegS [13]; K243D, MWC global fit, same value for all enzymes and peptides): 3.3 s⁻¹
enzymes in active conformation (K243D mutant of DegS [13]; K243D, saturating peptide and RseA, MWC model): about 85%
rate of rhodamine-FP modification in presence of peptide (order) (wild-type DegS [14]): fastest
Hill Constant (RseA substrate) (wild-type DegS [15]): 1.4 ± 0.2
Vmax (RseA cleavage) (wild-type DegS [15]; 23 °C, pH 8.3): 2.6 ± 0.2 s^−1enz^−1
